Patent US20240360178A1, “MACROCYCLIC IMMUNOMODULATORS” (Bristol-Myers Squibb Company, priority 2021, published 2024)
pIC50: −log10 of the molar value. Positions of bridges follow the written chain, without caps; N, C: chain ends. Non-standard residues stand in square brackets, D forms with d. Residues, ends and D or L forms follow the SMILES beside them. Bip = N[C@@H](Cc1ccc(-c2ccccc2)cc1)C(=O)O; NMeF = CN[C@@H](Cc1ccccc1)C(=O)O; NMeA = CN[C@@H](C)C(=O)O; Sar = CNCC(=O)O

Target: T1, human PD-1 (Jurkat-PD-1 cells) / PE-labeled human PD-L1-Ig (Homo sapiens, UniProt Q15116)
T1 construct: expressed in transfected cells; host or cells: Jurkat cell line over-expressing human PD-1
T1 sequence (Q15116 25-288): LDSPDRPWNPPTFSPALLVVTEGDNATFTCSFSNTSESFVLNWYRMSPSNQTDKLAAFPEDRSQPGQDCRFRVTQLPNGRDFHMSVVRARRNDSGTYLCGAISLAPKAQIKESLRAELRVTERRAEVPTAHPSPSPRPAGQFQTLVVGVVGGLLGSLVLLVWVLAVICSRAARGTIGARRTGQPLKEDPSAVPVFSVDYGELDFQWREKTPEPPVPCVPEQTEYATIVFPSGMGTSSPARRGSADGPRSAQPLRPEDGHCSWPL
Experiment: Jurkat-PD-1 Cell Binding High-Content Screening Assay (CBA); Jurkat hPD1-PDL1 assay
Settings: Jurkat cell line over-expressing human PD-1; PE-labeled PD-L1-Ig 20 nM final; compound incubated 2 hours at 37° C.; read-out: Jurkat HPD1-PDL1 IC50
In short: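 Binding of phycoerythrin-conjugated PD-L1-Ig (20 nM final) to PD-1-overexpressing Jurkat cells was read by high-content imaging. Cells in DMEM/10% FCS were exposed to compound for 2 hours at 37° C before labeled ligand was added.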

pIC50	Structure (SMILES)
6.44	CC(C)C[C@@H]1NC(=O)[C@H](Cc2c[nH]c3ccccc23)NC(=O)[C@H](CC(=O)O)NC(=O)[C@H](Cc2ccc(O)cc2)NC(=O)[C@H](Cc2ccccc2)NC(=O)CSC[C@@H](C(=O)N[C@@H](CCC(=O)O)C(N)=O)NC(=O)[C@H](CO)NC(=O)[C@H](C(C)C)NC(=O)[C@H](CC(C)C)NC(=O)[C@H](CC(N)=O)NC(=O)CN(C)C(=O)[C@H](C)N(C)C(=O)[C@H](C(C)C)NC(=O)[C@H](Cc2ccc(-c3ccccc3)cc2)NC1=O [Example 1251] ({CH2CO}-FYDWL[Bip]V[NMeA][Sar]NLVSCE-NH2; thioether N-14)
6.72	CC(C)C[C@@H]1NC(=O)[C@H](Cc2c[nH]c3ccccc23)NC(=O)[C@H](CC(=O)O)NC(=O)[C@H](Cc2ccc(O)cc2)NC(=O)[C@H](Cc2ccccc2)NC(=O)CSC[C@@H](C(=O)N[C@@H](C)C(N)=O)NC(=O)[C@H](CO)NC(=O)[C@H](C(C)C)NC(=O)[C@H](CC(C)C)NC(=O)[C@H](CC(N)=O)NC(=O)CN(C)C(=O)[C@H](C)N(C)C(=O)[C@H](C(C)C)NC(=O)[C@H](Cc2ccc(-c3ccccc3)cc2)NC1=O [Example 1252] ({CH2CO}-FYDWL[Bip]V[NMeA][Sar]NLVSCA-NH2; thioether N-14)
6.15	CC(C)C[C@@H]1NC(=O)[C@H](Cc2c[nH]c3ccccc23)NC(=O)[C@H](CC(=O)O)NC(=O)[C@H](Cc2ccc(O)cc2)NC(=O)[C@H](Cc2ccccc2)NC(=O)CSC[C@@H](C(=O)N[C@@H](CCCCN)C(N)=O)NC(=O)[C@H](CO)NC(=O)[C@H](C(C)C)NC(=O)[C@H](CC(C)C)NC(=O)[C@H](CC(N)=O)NC(=O)CN(C)C(=O)[C@H](C)N(C)C(=O)[C@H](C(C)C)NC(=O)[C@H](Cc2ccc(-c3ccccc3)cc2)NC1=O [Example 1253] ({CH2CO}-FYDWL[Bip]V[NMeA][Sar]NLVSCK-NH2; thioether N-14)

More lines, now with the values behind:

Structure (SMILES)	pIC50
CC(C)C[C@@H]1NC(=O)[C@H](CCCNC(=N)N)NC(=O)[C@H](Cc2ccccc2)N(C)C(=O)[C@H](C)N(C)C(=O)[C@H](CCCNC(=N)N)NC(=O)[C@H](Cc2ccc(-c3ccccc3)cc2)NC(=O)[C@H](C(C)C)NC(=O)[C@H](Cc2c[nH]c3ccccc23)NC(=O)[C@H](CC(=O)O)NC(=O)[C@H](Cc2cnc[nH]2)NC(=O)[C@H](Cc2ccccc2)NC(=O)CSC[C@@H](C(=O)NCC(N)=O)NC(=O)[C@H](CO)NC(=O)[C@H](C(C)C)NC1=O [Example 1249] ({CH2CO}-FHDWV[Bip]R[NMeA][NMeF]RLVSCG-NH2; thioether N-14)	6.57
CC(C)C[C@@H]1NC(=O)[C@H](CCCNC(=N)N)NC(=O)[C@H](Cc2ccccc2)N(C)C(=O)[C@H](C)N(C)C(=O)[C@H](CCCNC(=N)N)NC(=O)[C@H](Cc2ccc(-c3ccccc3)cc2)NC(=O)[C@H](C(C)C)NC(=O)[C@H](Cc2c[nH]c3ccccc23)NC(=O)[C@H](CC(=O)O)NC(=O)[C@H](Cc2ccc(O)cc2)NC(=O)[C@H](Cc2ccccc2)N(C)C(=O)CSC[C@@H](C(=O)NCC(N)=O)NC(=O)[C@H](CO)NC(=O)[C@H](C(C)C)NC1=O [Example 1250] ({CH2CO}-[NMeF]YDWV[Bip]R[NMeA][NMeF]RLVSCG-NH2; thioether N-14)	6.49
CC(C)C[C@@H]1NC(=O)[C@H](Cc2c[nH]c3ccccc23)NC(=O)[C@H](CC(=O)O)NC(=O)[C@H](Cc2ccc(O)cc2)NC(=O)[C@H](Cc2ccccc2)NC(=O)CSC[C@@H](C(=O)N[C@@H](CCCNC(=N)N)C(N)=O)NC(=O)[C@H](CO)NC(=O)[C@H](C(C)C)NC(=O)[C@H](CC(C)C)NC(=O)[C@H](CC(N)=O)NC(=O)CN(C)C(=O)[C@H](C)N(C)C(=O)[C@H](C(C)C)NC(=O)[C@H](Cc2ccc(-c3ccccc3)cc2)NC1=O [Example 1254] ({CH2CO}-FYDWL[Bip]V[NMeA][Sar]NLVSCR-NH2; thioether N-14)	6.07
